Experimental data taken from patent publication US20220025336A1, “METHOD FOR PRODUCING INSULIN-PRODUCING CELLS, AND COMPOSITION” (KATAOKA CORPORATION, priority 2018, published 2022).

Experiments:
human fibroblasts = test: Direct induction from human fibroblasts into insulin-producing cells; amount of insulin secreted; format: cell-based
Source text: (§1) The insulin-producing cell produced by the present invention process can be detected, identified, and isolated using, for example, a morphological change of a cell, a characteristic property of an insulin-producing cell, or a specific marker (e.g., an anti-insulin antibody). Moreover, the secretory capacity of the obtained insulin-producing cell can also be evaluated by quantifying the amount of secreted insulin using sandwich ELISA.
The human fibroblasts used as the material were purchased from DS Pharma Biomedical Co., Ltd. The fibroblasts are derived from human skin.
Human fibroblasts were seeded in 35-mm dishes coated with gelatin (Cat#: 190-15805, manufactured by Wako Pure Chemical Industries, Ltd.) at 5×10^4 cells/dish, and cultured in DMEM medium (manufactured by Gibco) supplemented with 10% fetal bovine serum (FBS), 100 U/mL penicillin, and 100 μg/mL streptomycin until confluent under conditions of 37° C. and 5% CO2. Note that DMEM refers to Dulbecco's Modified Eagle's Medium.
The medium of dishes of the human fibroblasts described above was replaced with the differentiation induction medium described below.
Differentiation induction medium: Advanced DMEM/F-12 (Cat#: 12634010; manufactured by Gibco) supplemented with ITS-X (Cat#: 51500056, manufactured by Gibco), non-essential amino acids (NEAA; Cat#: 11140050, manufactured by Gibco), Glutamine (manufactured by Gibco; final concentration: 2 mmol/L), Nicotinamide (Cat#: 72340-10OG, manufactured by Sigma-Aldrich; final concentration: 10 mmol/L), Exendin-4 (Cat#: av120214, manufactured by Abcam; final concentration: 100 ng/mL), 100 U/mL penicillin, 100 μg/mL streptomycin, insulin, and low molecular weight compounds described below, with or without addition of 10% fetal bovine serum (FBS, manufactured by Hyclone).
Subsequently, the cells were cultured under conditions of 37° C. and 5% CO2 while the medium was changed to the medium of the same composition every three days. […]

[1] = system: human adipose tissue-derived mesenchymal stem cells (AdMSC); test: Direct induction from human adipose tissue-derived mesenchymal stem cells (AdMSC) into insulin-producing cells; amount of insulin secreted; format: cell-based; details: FIG. 5; 120 μg/mL insulin; cultured 14 days
Source text: as §1
Human mesenchymal stem cells isolated from adipose tissue were purchased from Takara Bio Co., Ltd.
Human mesenchymal stem cells were seeded in 35-mm dishes coated with gelatin (Cat#: 190-15805, manufactured by Wako Pure Chemical Industries, Ltd.) at 5×10^4 cells/dish, and cultured in Mesenchymal Stem Cell Growth Medium 2 (Cat#: C-28009; manufactured by Takara Bio Co., Ltd.) supplemented with 100 U/mL penicillin and 100 μg/mL streptomycin until the cells were almost confluent under conditions of 37° C. and 5% CO2.
The medium of dishes of the human mesenchymal stem cells described above was replaced with the differentiation induction medium described below. […]

Molecule | increase of the amount of insulin secretion by induction with a high concentration of insulin (human fibroblasts; FIG. 2, 120 μg/mL vs 20 μg/mL insulin in differentiation induction medium, cultured 14 days) | amount of insulin secreted as a function of insulin concentration in the differentiation induction medium (human fibroblasts; FIG. 3, insulin up to 100 μg/mL, cultured 14 days) | amount of insulin secreted with a high concentration of insulin in the differentiation induction medium [1] | insulin secretion / secretory capacity of induced cells by combination of low molecular weight compounds (human fibroblasts; FIG. 4, 3C (CHIR99021, BRD7389, forskolin) without BRD7389, or with BI-D1870 5 μM or 10 μM instead of BRD7389, no LY294002, 14 days)
insulin: Human recombinant insulin (Cat#: 093-06351; Wako) added to the differentiation induction medium | about 3 times | the greater was the amount of insulin secreted | increased markedly | –
CC(C)CCN1c2nc(Nc3cc(F)c(O)c(F)c3)ncc2N(C)C(=O)C1C (stereo not shown) [BI-D1870, reference compound] | – | – | – | insulin-producing cells with a higher secretory capacity were also obtained
